# In patent publication US5912266A, “Beta2 integrin cell adhesion molecule inhibitors” (American Home Products Corporation, priority 1997, dated 1999):
# “And” between values parts separate entries of the source, which are not always exact repeats. Equal values may be shown once.
# Test system: β1 integrin
# Assay: Adhesion of activated, β1 integrin-expressing U937 cells to human fibronectin
# Assay type: cell-based
# Conditions: for Percent Cells Bound: single well
# Procedure: U937 cells, a human monocyte-like, histiocytic lymphoma cell line, was acquired from American Type Culture Collection (ATCC No. CRL-1593). The cells were grown in the culture media described in Example I, materials. Cells were subcultured when the cell density was approximately 1×10^6 cells per ml. The β1 integrins on U937 cells were activated to bind to fibronectin by the addition of PMN Buffer, described in Example I. The human fibronectin (Gibco, No. XOO1) was diluted to 3.5 μg/ml with dPBS. A 1% Bovine Serum Albumin (BSA; Fraction V, ICN Corp., No. 810032) solution was prepared in dPBS and was sterile filtered using a […] disposable filter apparatus (Corning No. 25932-200) before use. The 1% BSA solution was used for blocking non-specific binding sites on the plastic wells of the assay plate. The assay plates used were Corning 96-well EIA/RIA plates (No. 25801).
# 350 ng of human fibronectin contained in 100 μl of dPBS was added to wells of the assay plate. The control wells were filled with dPBS only. The assay plate was incubated at room temperature for exactly two hours to allow the fibronectin to bind to the assay wells. The fibronectin solution was aspirated from the wells of the assay plate and the wells were washed 3× with 200 μl/well of dPBS. The assay wells were filled with the 1% BSA solution. Additional wells, not coated with fibronectin, were also filled with the 1% BSA solution; these wells were used to measure non-specific cell adherence to the plastic assay plate. The assay plate was incubated for 30 minutes at room temperature. The 1% BSA solution was removed from the wells of the assay plate by aspiration using a multichannel pipettor. The assay wells were washed 3× with 200 μl/well of dPBS. Approximately 50 μl of dPBS was added to the assay wells to ensure that they would not dry out prior to the initiation of the assay.
# U937 cells were harvested from culture, washed and labeled with calcein AM fluorescent dye as outlined in Example I, except that the concentration of calcein used to label U937 cells was 12.5 μM and cells were sedimented by centrifugation at 1000 rpm for 5 minutes. After the final wash (see Example I), the U937 cells were resuspended in ice-cold PMN Buffer to 1.25×10^5 cells/40 μl. The cell suspension was placed in the dark at room temperature until needed. The asperlin solutions were prepared as described in Example I.
# The 50 μl of dPBS remaining in the wells of the assay plate was removed by inverting the assay plate and tapping on paper toweling. 50 μl of the serially diluted asperlin solution was added to wells of the assay plate. Control wells received PMN buffer containing 2% DMSO and the assay plate was incubated for 10 minutes at room temperature.
# Calcein labeled cells, that had been gently mixed by swirling, were added to the wells in 40 μl volumes equal to 1.25×10^5 cells/well and 10 μl of PMA solution was immediately added to the wells of the assay plate and the assay was continued as described in Example 1. 100 μl of PMN buffer was added to all wells of the assay plate. The fluorescence of the adherent, activated β1 integrin expressing cells was measured using a fluorescent plate reader, as described in Example I.
# The percentage of β1 integrin expressing cells adhering to fibronectin coated wells was quantitated by the equation: % Cells Bound=((Bound Cell Fluorescence-Average Bound Fluorescence of the Non-specific Binding Control).div.Total Cell Fluorescence)×100.
smiles,measurement,setting,value
"CC(=O)OC1C=CC(=O)OC1C1OC1C [Asperlin, 6,7-Anhydro-2,3,8-trideoxy-D-galacto-oct-2-enoic acidδ-lactone 4-acetate]",% Inhibition Cell Adhesion,Asperlin 1.56 μg/ml,-9%
same,Average Percent Bound,Asperlin 1.56 μg/ml,75%
same,Bound Cell Fluorescence,Asperlin 1.56 μg/ml,3002 fluorescence units/well and 3140 fluorescence units/well and 3132 fluorescence units/well
same,Percent Cells Bound,Asperlin 1.56 μg/ml,75% and 76% and 74%
same,% Inhibition Cell Adhesion,Asperlin 3.125 μg/ml,-9%
same,Average Percent Bound,Asperlin 3.125 μg/ml,75%
same,Bound Cell Fluorescence,Asperlin 3.125 μg/ml,3132 fluorescence units/well and 3140 fluorescence units/well and 2895 fluorescence units/well
same,Percent Cells Bound,Asperlin 3.125 μg/ml,76% and 75% and 73%
same,% Inhibition Cell Adhesion,Asperlin 6.25 μg/ml,10%
same,Average Percent Bound,Asperlin 6.25 μg/ml,62%
same,Bound Cell Fluorescence,Asperlin 6.25 μg/ml,2292 fluorescence units/well and 2344 fluorescence units/well and 2529 fluorescence units/well
same,Percent Cells Bound,Asperlin 6.25 μg/ml,60% and 65%
same,% Inhibition Cell Adhesion,Asperlin 12.5 μg/ml,-1%
same,Average Percent Bound,Asperlin 12.5 μg/ml,70%
same,Bound Cell Fluorescence,Asperlin 12.5 μg/ml,2331 fluorescence units/well and 2683 fluorescence units/well and 2985 fluorescence units/well
same,Percent Cells Bound,Asperlin 12.5 μg/ml,64% and 71% and 74%
same,% Inhibition Cell Adhesion,Asperlin 25 μg/ml,0%
same,Average Percent Bound,Asperlin 25 μg/ml,69%
same,Bound Cell Fluorescence,Asperlin 25 μg/ml,2404 fluorescence units/well and 2870 fluorescence units/well and 2969 fluorescence units/well
same,Percent Cells Bound,Asperlin 25 μg/ml,61% and 71% and 75%
same,% Inhibition Cell Adhesion,Asperlin 50 μg/ml,-6%
same,Average Percent Bound,Asperlin 50 μg/ml,73%
same,Bound Cell Fluorescence,Asperlin 50 μg/ml,2391 fluorescence units/well and 2791 fluorescence units/well and 3203 fluorescence units/well
same,Percent Cells Bound,Asperlin 50 μg/ml,68% and 74% and 77%
same,% Inhibition Cell Adhesion,Asperlin 100 μg/ml,0%
same,Average Percent Bound,Asperlin 100 μg/ml,69%
same,Bound Cell Fluorescence,Asperlin 100 μg/ml,2466 fluorescence units/well and 2854 fluorescence units/well and 3194 fluorescence units/well
same,Percent Cells Bound,Asperlin 100 μg/ml,61% and 70% and 75%
same,% Inhibition Cell Adhesion,Asperlin 200 μg/ml,3%
same,Average Percent Bound,Asperlin 200 μg/ml,67%
same,Bound Cell Fluorescence,Asperlin 200 μg/ml,2222 fluorescence units/well and 2736 fluorescence units/well and 2846 fluorescence units/well
same,Percent Cells Bound,Asperlin 200 μg/ml,61% and 68% and 71%
same,Effect on adhesion of β1 integrin expressing cells to fibronectin (in words),summary of Table II,does not block the adhesion of β1 integrin expressing cells to fibronectin
